Measurements from BindingDB's records for patent US11208411 (The Regents of the University of California; Washington …, 2021).

Target: Proto-oncogene tyrosine-protein kinase Src (Homo sapiens, UniProt P12931)
Test: Expression and Purification of Active Kinases

Chain of Proto-oncogene tyrosine-protein kinase Src (P12931 2-536 limits assumed): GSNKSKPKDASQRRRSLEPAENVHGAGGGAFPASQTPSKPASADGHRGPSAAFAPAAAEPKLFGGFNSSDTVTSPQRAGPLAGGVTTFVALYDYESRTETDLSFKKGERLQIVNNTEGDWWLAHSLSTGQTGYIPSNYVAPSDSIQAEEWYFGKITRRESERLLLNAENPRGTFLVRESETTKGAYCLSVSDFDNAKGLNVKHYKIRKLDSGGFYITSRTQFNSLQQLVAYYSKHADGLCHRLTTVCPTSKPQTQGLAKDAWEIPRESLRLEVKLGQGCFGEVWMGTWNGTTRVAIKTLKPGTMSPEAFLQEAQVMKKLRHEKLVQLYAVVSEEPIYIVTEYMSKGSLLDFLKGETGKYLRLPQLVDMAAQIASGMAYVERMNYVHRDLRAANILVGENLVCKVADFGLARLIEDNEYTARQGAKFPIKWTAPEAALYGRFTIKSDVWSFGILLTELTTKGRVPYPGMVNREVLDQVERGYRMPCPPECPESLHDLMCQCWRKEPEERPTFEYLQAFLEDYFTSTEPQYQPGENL

IC50: 1570 nM
Structure (SMILES): CC(C)(C)n1nc(Cc2coc3ccccc23)c2c(N)ncnc21 [US11208411, Cmpd LJQ-145]
